In patent US10631537B2, “Disinfectant composition having residual biocidal properties” (LONZA LLC, priority 2016, dated 2020):

Tests used:
P. aeruginosa ATCC 15442 = experiment: First screening: residual self-sanitizing activity of dried film on stainless steel coupon, no wearing (modified EPA Protocol #01-1A); type: cell-based; details: about 30 mg on one square inch, dried overnight, 5 minute contact time
Description: (§1) First round of micro test was to evaluate the efficacy of the biocides against P. aeruginosa. About 30 mg of the biocide/polymer based formulation were coated on the one square inch area of a stainless steel coupon. The treated stainless steel coupons were left on the bench for air drying overnight. The dried stainless steel test samples were sent to a micro lab for efficacy testing against P. aeruginosa ATCC 15442 following a modified version of Residual Self-Sanitizing Activity on Hard, Non-Porous Surfaces (EPA Protocol #01-1A). […] Samples were inoculated with the test organism and held for a 5 minute contact time. Three replicates were tested for each sample.

P. aeruginosa = experiment: Second screening: efficacy of dried film after abrasion (0 rub vs 12 dry rubs); type: cell-based; details: active 0.4%, film PVOH, about 30 mg; for Log10 Reduction, 12 dry Rubs: no re-inoculation between rubs
Description: as §1, with “sample. Second round of testing was to compare the efficacy after an abrasion process. About 30 mg of the test formulation was coated on the one square inch area of a stainless steel coupon. Samples were divided into two groups: one group had 0 rub, and the other group had 12 dry rubs. No re-inoculation was applied between rubs.” for “sample.”

[1] = active concentration 0.4%, film PVOH

Compound	Log reduction (with culture dilution), average (P. aeruginosa ATCC 15442; active concentration 1.0%, film PVOH) [log]	Log10 Reduction, 12 dry Rubs (P. aeruginosa) [log10]	Log10 Reduction, No Rub (P. aeruginosa) [log10]	Log reduction (with culture dilution), average (P. aeruginosa ATCC 15442; [1]) [log]	Log reduction (with culture dilution), average (P. aeruginosa ATCC 15442; active concentration 0.4%, film PVP) [log]
N=C(NCCCCCCNC(=N)NC(=N)Nc1ccc(Cl)cc1)NC(=N)Nc1ccc(Cl)cc1 [Chlorhexidine digluconate]	≥4.85	5.04	5.42	–	–
CCCCCCCCCCCCN(CCCN)CCCN [N,N-bis(3-aminopropyl) dodecylamine, N,N-bis(3-aminopropyl)dodecylamine]	–	4.77	5.22	≥4.85	4.05
Alkyldimethyl benzyl ammonium chlorides	–	3.48	3.56	3.85	–
